Patent US20200085791A1, “[(PHENYLSULFONYL)OCTAHYDRO-EPIMINOISOINDOL-YL](1H-1,2,3-TRIAZOL-5-YL)METHANONES” (Bayer Pharma Aktiengesellschaft, priority 2016, published 2020)

Target: T1, recombinant human AKR1C3 (Aldo-keto reductase family 1 member C3) (Homo sapiens, UniProt P42330)
T1 construct: GST (cleaved yes); made in house; host or cells: E. coli
T1 sequence (P42330 1-323): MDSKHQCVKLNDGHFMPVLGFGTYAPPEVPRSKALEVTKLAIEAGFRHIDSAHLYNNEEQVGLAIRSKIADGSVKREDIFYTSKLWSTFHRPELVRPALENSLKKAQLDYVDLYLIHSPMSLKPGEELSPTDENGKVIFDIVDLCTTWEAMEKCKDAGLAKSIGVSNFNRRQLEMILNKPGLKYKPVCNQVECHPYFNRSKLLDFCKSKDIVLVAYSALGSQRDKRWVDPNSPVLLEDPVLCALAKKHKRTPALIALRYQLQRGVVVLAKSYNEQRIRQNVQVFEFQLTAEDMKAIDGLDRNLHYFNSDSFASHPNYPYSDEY
Experiment: In Vitro Assay 1: AKR1C3-inhibitory activity (Coumberone to Coumberol fluorescence assay)
Format: biochemical
Conditions: recombinant enzyme, Coumberone 0.3 μM, NADPH 10 μM, 15 min pre-incubation, 4-parameter fit; average or median values
Protocol: In Vitro Assay 1: AKR1C3-Inhibitory Activity
The AKR1C3-inhibitory activity of the substances of the present invention was measured in the AKR1C3 assay described in the paragraphs below.
Essentially, the enzyme activity is measured by quantification of the Coumberol from Coumberone (Halim, M., Yee, D. J., and Sames, D., J. AM. CHEM. SOC. 130, 14123-14128 (2008) and Yee, D. J., Balsanek, V., Bauman, D. R., Penning, T. M., and Sames, D., Proc. Natl. Acad. Sci. USA 103, 13304-13309 (2006)). In this test, the increase of the highly fluorescent Coumberol by NADPH- (nicotinamide adenine dinucleotide phosphate)-dependent reduction of the non-fluorescent Coumberone by AKR1C3 can be determined.
The enzyme used was recombinant human AKR1C3 (Aldo-keto reductase family 1 member C3) (GenBank Accession No. NM_003739). This was expressed in E. coli as GST (glutathione S transferase) fusion protein and purified by glutathione Sepharose affinity chromatography. The GST was removed by digestion with thrombin and subsequent size exclusion chromatography (Dufort, I., Rheault, P., Huang, X F., Soucy, P., and Luu-The, V., Endocrinology 140, 568-574 (1999)).
For the assay, 50 nl of a 100-fold concentrated solution of the test substance in DMSO were pipetted into a black low-volume 384-well microtiter plate (Greiner Bio-One, Frickenhausen, Germany), 2.5 μl of a solution of AKR1C3 in assay buffer [50 mM potassium phosphate buffer pH 7, 1 mM DTT, 0.0022% (w/v) Pluronic F-127, 0.01% BSA (w/v) and protease inhibitor cocktail (Complete, EDTA-free Protease Inhibitor Cocktail from Roche)] were added and the mixture was incubated for 15 min to allow pre-binding of the substances to the enzyme prior to the enzyme reaction. The enzyme reaction was then started by addition of 2.5 μl of a solution of NADPH (20 μM→final concentration in 5 μl of assay volume is 10 μM) and Coumberone (0.6 μM→final concentration in 5 μl of assay volume is 0.3 μM) in assay buffer, and the resulting mixture was incubated at […] for the reaction time of typically 90 min. The concentration of the AKR1C3 and the reaction time was adapted to the respective activity of the enzyme preparation and adjusted such that the assay was carried out in the linear range.
Typical AKR1C3 concentrations were in the region of 1 nM. The reaction was stopped by addition of 2.5 μl of a stop solution consisting of the inhibitor EM-1404 [F. Labrie et al. U.S. Pat. No. 6,541,463, 2003] (3 μM→final concentration in 7.5 μl of assay volume is 1 μM). The fluorescence of the Coumberole was then measured at 520 nm (excitation at 380 nm) using a suitable measuring instrument (Pherastar from BMG Labtechnologies). The intensity of the fluorescence was used as a measure of the amount of Coumberole formed and thus of the enzyme activity of AKR1C3. The data were normalized (enzyme reaction without inhibitor—0% inhibition; all other assay components, but no enzyme=100% inhibition).

| SMILES | IC50 |
| --- | --- |
| O=C(c1c[nH]nn1)N1C[C@@H]2[C@H](C1)[C@@H]1CC[C@H]2N1S(=O)(=O)c1cccc(F)c1 [Example 5, {(3aR,4S,7R,7aS)-8-[(3-fluorophenyl)sulfonyl]octahydro-2H-4,7-epiminoisoindol-2-yl}(1H-1,2,3-triazol-4-yl)methanone] | 26 nM |
| N#Cc1cccc(S(=O)(=O)N2[C@@H]3CC[C@H]2[C@H]2CN(C(=O)c4cnn[nH]4)C[C@H]23)c1 [Example 26, 3-{[(3aR,4S,7R,7aS)-2-(1H-1,2,3-triazol-5-ylcarbonyl)octahydro-1H-4,7-epiminoisoindol-8-yl]sulfonyl}benzonitrile] | 322 nM |
| COc1ccc(C#N)cc1S(=O)(=O)N1[C@@H]2CC[C@H]1[C@@H]1CN(C(=O)c3cnn[nH]3)C[C@@H]12 [Example 66, 4-methoxy-3-{[(3aR,4R,7S,7aS)-2-(1H-1,2,3-triazol-5-ylcarbonyl)octahydro-1H-4,7-epiminoisoindol-8-yl]sulfonyl}benzonitrile] | 625 nM |
| Cc1cccc(S(=O)(=O)N2[C@@H]3CC[C@H]2[C@H]2CN(C(=O)c4cnn[nH]4)C[C@H]23)c1 [Example 23, {(3aR,4S,7R,7aS)-8-[(3-methylphenyl)sulfonyl]octahydro-2H-4,7-epiminoisoindol-2-yl}(1H-1,2,3-triazol-5-yl)methanone] | 39 nM |
| O=C(c1c[nH]nn1)N1C[C@@H]2[C@H](C1)[C@@H]1CC[C@H]2N1S(=O)(=O)c1cccc(S(F)(F)(F)(F)F)c1 [Example 11, [(3aR,4S,7R,7aS)-8-{[3-(pentafluoro-λ^6-sulfanyl)phenyl]sulfonyl}octahydro-2H-4,7-epiminoisoindol-2-yl](1H-1,2,3-triazol-4-yl)methanone] | 69 nM |
| O=C(c1cnn[nH]1)N1C[C@@H]2[C@H](C1)[C@H]1CC[C@@H]2N1S(=O)(=O)c1ccc(Cl)c(Cl)c1 [Example 37, {(3aR,4R,7S,7aS)-8-[(3,4-dichlorophenyl)sulfonyl]octahydro-2H-4,7-epiminoisoindol-2-yl}(1H-1,2,3-triazol-5-yl)methanone] | 82 nM |
| O=C(c1c[nH]nn1)N1C[C@@H]2[C@H](C1)[C@@H]1CC[C@H]2N1S(=O)(=O)c1ccccc1F [Example 14, {(3aR,4S,7R,7aS)-8-[(2-fluorophenyl)sulfonyl]octahydro-2H-4,7-epiminoisoindol-2-yl}(1H-1,2,3-triazol-4-yl)methanone] | 24 nM |
| O=C(c1cnn[nH]1)N1C[C@@H]2[C@H](C1)[C@H]1CC[C@@H]2N1S(=O)(=O)c1cc(Cl)ccc1F [Example 51, {(3aR,4R,7S,7aS)-8-[(5-chloro-2-fluorophenyl)sulfonyl]octahydro-2H-4,7-epiminoisoindol-2-yl}(1H-1,2,3-triazol-5-yl)methanone] | 3 nM |
| O=C(c1c[nH]nn1)N1C[C@@H]2[C@H](C1)[C@@H]1CC[C@H]2N1S(=O)(=O)c1cccc(Cl)c1C(F)(F)F [Example 17, [(3aR,4S,7R,7aS)-8-{[3-chloro-2-(trifluoromethyl)phenyl]sulfonyl}octahydro-2H-4,7-epiminoisoindol-2-yl](1H-1,2,3-triazol-4-yl)methanone] | 51 nM |
| N#Cc1ccc(S(=O)(=O)N2[C@@H]3CC[C@H]2[C@@H]2CN(C(=O)c4cnn[nH]4)C[C@@H]23)cc1 [Example 43, 4-{[(3aR,4R,7S,7aS)-2-(1H-1,2,3-triazol-5-ylcarbonyl)octahydro-1H-4,7-epiminoisoindol-8-yl]sulfonyl}benzonitrile] | 855 nM |
| Cc1ccc(S(=O)(=O)N2[C@@H]3CC[C@H]2[C@H]2CN(C(=O)c4cnn[nH]4)C[C@H]23)cc1 [Example 21, {(3aR,4S,7R,7aS)-8-[(4-methylphenyl)sulfonyl]octahydro-2H-4,7-epiminoisoindol-2-yl}(1H-1,2,3-triazol-5-yl)methanone] | 327 nM |
| O=C(c1c[nH]nn1)N1C[C@@H]2[C@H](C1)[C@@H]1CC[C@H]2N1S(=O)(=O)c1c(F)cccc1F [Example 12, {(3aR,4S,7R,7aS)-8-[(2,6-difluorophenyl)sulfonyl]octahydro-2H-4,7-epiminoisoindol-2-yl}(1H-1,2,3-triazol-4-yl)methanone] | 43 nM |
| COc1cc(C)ccc1S(=O)(=O)N1[C@@H]2CC[C@H]1[C@@H]1CN(C(=O)c3cnn[nH]3)C[C@@H]12 [Example 58, {(3aR,4R,7S,7aS)-8-[(2-methoxy-4-methylphenyl)sulfonyl]octahydro-2H-4,7-epiminoisoindol-2-yl}(1H-1,2,3-triazol-5-yl)methanone] | 110 nM |
| O=C(c1c[nH]nn1)N1C[C@@H]2[C@H](C1)[C@@H]1CC[C@H]2N1S(=O)(=O)c1ccc(F)cc1F [Example 13, {(3aR,4S,7R,7aS)-8-[(2,4-difluorophenyl)sulfonyl]octahydro-2H-4,7-epiminoisoindol-2-yl}(1H-1,2,3-triazol-4-yl)methanone] | 102 nM |
| Cc1cccc(Cl)c1S(=O)(=O)N1[C@@H]2CC[C@H]1[C@@H]1CN(C(=O)c3cnn[nH]3)C[C@@H]12 [Example 40, {(3aR,4R,7S,7aS)-8-[(2-chloro-6-methylphenyl)sulfonyl]octahydro-2H-4,7-epiminoisoindol-2-yl}(1H-1,2,3-triazol-5-yl)methanone] | 3 nM |
| Cc1cc(Cl)cc(S(=O)(=O)N2[C@@H]3CC[C@H]2[C@@H]2CN(C(=O)c4cnn[nH]4)C[C@@H]23)c1 [Example 68, {(3aR,4R,7S,7aS)-8-[(3-chloro-5-methylphenyl)sulfonyl]octahydro-2H-4,7-epiminoisoindol-2-yl}(1H-1,2,3-triazol-5-yl)methanone] | 48 nM |
| O=C(c1cnn[nH]1)N1C[C@@H]2[C@H](C1)[C@H]1CC[C@@H]2N1S(=O)(=O)c1cc(F)ccc1Cl [Example 63, {(3aR,4R,7S,7aS)-8-[(2-chloro-5-fluorophenyl)sulfonyl]octahydro-2H-4,7-epiminoisoindol-2-yl}(1H-1,2,3-triazol-5-yl)methanone] | 2 nM |
| Cc1ccc(Cl)cc1S(=O)(=O)N1[C@@H]2CC[C@H]1[C@@H]1CN(C(=O)c3cnn[nH]3)C[C@@H]12 [Example 53, {(3aR,4R,7S,7aS)-8-[(5-chloro-2-methylphenyl)sulfonyl]octahydro-2H-4,7-epiminoisoindol-2-yl}(1H-1,2,3-triazol-5-yl)methanone] | 2 nM |
| O=C(c1cnn[nH]1)N1C[C@@H]2[C@H](C1)[C@@H]1CC[C@H]2N1S(=O)(=O)c1ccc(F)cc1 [Example 22, {(3aR,4S,7R,7aS)-8-[(4-fluorophenyl)sulfonyl]octahydro-2H-4,7-epiminoisoindol-2-yl}(1H-1,2,3-triazol-5-yl)methanone] | 113 nM |
| O=C(c1cnn[nH]1)N1C[C@@H]2[C@H](C1)[C@H]1CC[C@@H]2N1S(=O)(=O)c1ccc2nsnc2c1 [Example 48, [(3aR,4R,7S,7aS)-8-(2,1,3-benzothiadiazol-5-ylsulfonyl)octahydro-2H-4,7-epiminoisoindol-2-yl](1H-1,2,3-triazol-5-yl)methanone] | 213 nM |
| N#Cc1cc(S(=O)(=O)N2[C@@H]3CC[C@H]2[C@@H]2CN(C(=O)c4cnn[nH]4)C[C@@H]23)ccc1F [Example 50, 2-fluoro-5-{[(3aR,4R,7S,7aS)-2-(1H-1,2,3-triazol-5-ylcarbonyl)octahydro-1H-4,7-epiminoisoindol-8-yl]sulfonyl}benzonitrile] | 999 nM |
| COc1ccc(S(=O)(=O)N2[C@@H]3CC[C@H]2[C@@H]2CN(C(=O)c4cnn[nH]4)C[C@@H]23)cc1OC [Example 41, {(3aR,4R,7S,7aS)-8-[(3,4-dimethoxyphenyl)sulfonyl]octahydro-2H-4,7-epiminoisoindol-2-yl}(1H-1,2,3-triazol-5-yl)methanone] | 731 nM |
